According to US20240245770A1, “COMPOSITIONS AND METHODS FOR TREATING NEUROMUSCULAR DISORDERS” (The Regents of the University of California, priority 2019, published 2024):

Key:
ALS = details: cited from earlier work
[1] = test system: Dental Pulp Stromal Cells (DPSCs); test: NAC blocking of H2O2 mediated cell death in DPSCs; assay type: cell-based, human; details: NAC 20 mM, 24 hours, FIG. 67
Experimental: Testing and selection of the best NAC to be used in ALS treatment. […] Afterwards DPSCs were detached, and the viability of cells was determined after PI staining followed by flow cytometric analysis. In this figure the decrease in FS/ss and the percentage of PI stained cells were assessed.

OSCSCs = test: NAC blocking of H2O2 mediated cell death in OSCSCs; assay type: cell-based, human; details: NAC 20 mM, 24 hours, FIG. 68
[2] = test system: Oral squamous carcinoma cells (OSCCs) and Oral squamous stem cell carcinoma (OSCSCs); test: NAC blocking of CDDP mediated cell death (PI staining, flow cytometry); assay type: cell-based, human; details: OSCC compared with OSCSCs, 24 hours
Experimental: Testing and selection of the best NAC to be used in ALS treatment. […] Afterwards OSCCs and OSCSCs were detached, and the viability of cells was determined after PI staining followed by flow cytometric analysis. In this figure Forward and Side Scatters (Fs/ss) were assessed since decrease in the Fs/ss is seen in cells undergoing cell death.
Testing and selection of the best NAC to be used in ALS treatment. […] Afterwards OSCCs and OSCSCs were detached, and the viability of cells was determined after PI staining followed by flow cytometric analysis. In this figure the percentage of PI stained cells were assessed.

Which extension of life (ALS) does the source give for Nc1nc2ccc(OC(F)(F)F)cc2s1 [Riluzole] here?
The extension of life was “about two to three”.

For CC(=O)N[C@@H](CS)C(=O)O [NAC-M], which “H2O2 mediated cell death (Fs/ss and PI positive cells)” value [1] is on record?
The value was “able to inhibit H2O2 mediated cell death effectively”.

And the “H2O2 mediated cell death (Fs/ss and PI positive cells)” value (OSCSCs)?
Its value is “able to inhibit H2O2 mediated cell death effectively”.

With [NH2][Pt]([NH2])([Cl])[Cl] [CDDP, Cisplatin] as the compound, how does the “cell death induced by CDDP” value [2] read?
Its value is “induces more of the cell death in OSCC than in OSCSCs”.
